Test results: patent US20090247616A1, “USE OF BENZO-FUSED HETEROCYLE SULFAMIDE DERIVATIVES FOR THE TREATMENT OF ANXIETY” (priority 2008, published 2009)

Legend:
[1] = tested on: Male Rj:NMRI mice; assay: Elevated Plus Maze, Mouse (EPM); assay type: in vivo; conditions: 16 mg/kg p.o. (positive control)
From the text: Rodents avoid open spaces (in the case of the assay apparatus, the open arms of an elevated plus-maze). Compounds which have anti-anxiety activity increase exploratory activity of the rodents in the open arms of the elevated plus-maze. The EPM assay was run according to the procedure as described by Handley and Mithani (Naunyn. Schmied. Arch. Pharmacol., 327, 1-5, 1984).
Male Rj:NMRI mice, weighing 20-30 g (max. range per experiment=5 g) at the beginning of the experiments, were obtained from Elevage Janvier, 53940 Le Genest-Saint-Isle, France and used in the assay. The animals were delivered to the laboratory at least 5 days before the experiments during which time they were acclimatized to laboratory conditions. The mice were housed in groups of 10 in Macrolon cages (25×19×13 cm) on wood litter (Litalabo—SPPS, 95100 Argenteuil, France) with free access to food (Code 113—SAFE, 89290 Augy, France) and water until tested (or as indicated otherwise). The animal house was maintained under artificial lighting (12 hours) between 7:00 and 19:00 in a controlled ambient temperature of 21±3° C., and relative humidity between 30-80%.
The elevated plus-maze consisted of 4 arms of equal length and width (14×5 cm) arranged in the form of a plus sign (+). Two opposite arms were enclosed by 12 cm high walls (closed arms). The 2 other arms had no walls (open arms). The maze was raised 56 cm above the floor. A mouse was placed in the centre of the plus-maze and left to explore the maze for 5 minutes. The number of entries into the open and closed arms and the time spent in the open arms was recorded. Ten (10) mice were used for each study group. The test was performed blind.
(§1) Compound #8 was evaluated at 30 mg/kg, 60 mg/kg and 120 mg/kg doses, administered p.o. 60 minutes before the test, and compared with a vehicle control group. Compound #8 was homogenized and dispersed using a mortar and a pestle in 0.2% hydroxypropylmethylcellulose (HPMC) in distilled water, which served as the vehicle. As a positive control, Clobazam (16 mg/kg p.o.), was administered under the same experimental conditions. Clobazam as URBANYL® tablets (16 mg/kg p.o.) were dispersed in 0.2% hydroxypropylmethylcellulose (HPMC) in distilled water for administration. Each experiment therefore included 5 study groups of 10 mice each.
(§2) Data were analyzed by comparing groups treated with compound #8 with groups treated with vehicle control using unpaired Student's t tests.

[2] = tested on: mouse; assay: Four Plate Test, Mouse; assay type: in vivo; conditions: 32 mg/kg p.o. (positive control)
From the text: The Four Plate assay was run according to the procedure as described by Aron et al (Neuropharmacology, 10, 459-469, 1971). In this assay, the rodent experiences an electric shock upon crossing from one plate to another. Anxiolytics (such as benzodiazepines) increase the number of punished crossings.
Animals were placed individually in a white plastic enclosure containing a floor consisting of 4 metal plates connected to an electric shock generator (Apelex: Type 011346). The mouse was left to explore freely for 15 seconds. Then, every time the mouse crossed from one plate to another, it received a weak electric shock (2.5 mA, 1.5 s). The number of punished crossings were counted during a 1 minute test. Ten (10) mice were used for each study group. The test was performed blind.
as §1, with “(32” for “(16”, “Clobazam as URBANYL® tablets (16 mg/kg p.o.) were dispersed in 0.2% hydroxypropylmethylcellulose (HPMC) in distilled water for administration. Each experiment therefore included 5 study groups of 10 mice each.” left out
as §2

[3] = same experimental conditions, 10 mice

Structure (SMILES) | melting point [°C] | Closed Arms Number of Entries, Mean ± S.E.M. [1, 3] | Open Arms Number of Entries, Mean ± S.E.M. [1, 3] | Open Arms Time Spent (sec), Mean ± S.E.M. [1, 3] [s] | Closed Arms Number of Entries, % change ([1]; change from vehicle control) | Open Arms Number of Entries, % change ([1]; change from vehicle control) | Open Arms Time Spent, % change ([1]; change from vehicle control) | Number of Punished Crossings, Mean ± S.E.M. [2, 3] | Number of Punished Crossings, % Change ([2]; change from vehicle control)
NS(=O)(=O)NCC1CCc2ccccc2O1 (stereo not drawn) | 100 to 101 |  |  |  |  |  |  |  | 
CN1C(=O)CC(=O)N(c2ccccc2)c2cc(Cl)ccc21 [CLOBAZAM, Clobazam] |  | 11.9 ± 1.5 (*) | 11.7 ± 1.1 (***) | 120.1 ± 13.1 | +59% | +350% | +567% | 9.9 ± 1.2 (***) | +154%
